Experimental findings from patent US9012651B2, “TRPV3 modulators” (AbbVie Inc., priority 2011, dated 2015) are described below.

pIC50: −log10 of the molar value.

human TRPV3 receptors, sequence (Q8NET8 whole entry): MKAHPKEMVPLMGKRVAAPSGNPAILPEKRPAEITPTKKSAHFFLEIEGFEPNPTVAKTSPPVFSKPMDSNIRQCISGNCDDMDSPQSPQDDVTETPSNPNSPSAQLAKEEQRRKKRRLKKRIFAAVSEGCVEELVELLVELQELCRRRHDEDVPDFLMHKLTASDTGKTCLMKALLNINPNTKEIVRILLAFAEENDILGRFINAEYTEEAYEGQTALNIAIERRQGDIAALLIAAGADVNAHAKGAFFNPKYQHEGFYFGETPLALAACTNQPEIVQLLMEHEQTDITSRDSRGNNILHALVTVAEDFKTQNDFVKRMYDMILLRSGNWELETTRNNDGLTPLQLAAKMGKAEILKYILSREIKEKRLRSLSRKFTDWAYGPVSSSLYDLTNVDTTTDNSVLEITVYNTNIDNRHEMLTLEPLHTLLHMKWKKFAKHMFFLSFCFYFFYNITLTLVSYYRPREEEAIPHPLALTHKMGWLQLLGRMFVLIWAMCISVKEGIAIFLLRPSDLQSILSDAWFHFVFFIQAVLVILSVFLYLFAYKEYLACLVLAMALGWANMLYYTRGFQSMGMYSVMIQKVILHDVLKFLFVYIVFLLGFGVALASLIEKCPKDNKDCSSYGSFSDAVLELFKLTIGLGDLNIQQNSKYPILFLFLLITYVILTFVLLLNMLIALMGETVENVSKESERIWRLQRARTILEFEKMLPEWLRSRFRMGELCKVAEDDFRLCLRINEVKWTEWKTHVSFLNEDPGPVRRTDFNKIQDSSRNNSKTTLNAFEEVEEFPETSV

The target in this test is human TRPV3 receptors (Homo sapiens (Human), UniProt Q8NET8). Nature of the test: Calcium flux assay (FLIPR TETRA), inhibition of the 2-APB response. The note with it: recombinant HEK293 cells stably expressing TRPV3, Calcium-4 dye, 2-APB at its EC80. The format is cell-based. How it is done: (i) In Vitro Methods-Calcium Flux Assays:
Experiments were conducted using the FLIPR^TETRA®. On the day prior to the experiment, recombinant HEK293 cells that stably express human and mouse TRPV3 were removed from tissue culture flasks and plated in growth medium at 20,000 cells/well into black-walled clear-bottom 384-well Biocoat™ poly-D-lysine assay plates (BD Biosciences, Bedford, Mass.) using a Multidrop® dispenser (ThermoScientific, Waltham, Mass.). […] Cells were incubated for 90-120 minutes in the dark. Compounds were dissolved in DMSO to prepare a 10 mM stock solution. The intensity of the fluorescence was captured and digitally transferred to an interfaced PC. The peak increase in fluorescence over baseline (relative fluorescence units) was calculated and expressed as the percentage of the maximal 2-APB (2-aminoethoxyldiphenyl borate) response (in the absence of compound).
Take `COCC(CO)NCc1nc(-c2ccc(C(F)(F)F)cc2)ccc1F` (stereo not drawn) [Example 74, 2-[({3-fluoro-6-[4-(trifluoromethyl)phenyl]pyridin-2-yl}methyl)amino]-3-methoxypropan-1-ol]: the negative-log IC50 (pIC50) (in general, the negative decadic logarithm of the IC50, by convention in mol/L) is 5.43.
As to `OCC1(NCc2nc(-c3ccc(C(F)(F)F)cc3)ccc2F)CCC1` [Example 79, {1-[({3-fluoro-6-[4-(trifluoromethyl)phenyl]pyridin-2-yl}methyl)amino]cyclobutyl}methanol], the pIC50 was 6.15.
In the case of `CC(C)[C@H](CO)NCc1ccnc(-c2ccc(C(F)(F)F)cn2)n1` [Example 192, (2R)-3-methyl-2-[({2-[5-(trifluoromethyl)pyridin-2-yl]pyrimidin-4-yl}methyl)amino]butan-1-ol] it was below 4.70; in that of `CC(C)[C@H](CO)NCc1nc(-c2ccc(C(=O)N3CCCC3)cc2)ccc1F` [Example 276, {4-[5-fluoro-6-({[(2R)-1-hydroxy-3-methylbutan-2-yl]amino}methyl)pyridin-2-yl]phenyl}(pyrrolidin-1-yl)methanone], 4.96.
As for `CC(C)[C@H](CO)NCc1nc(-c2ccc(C(F)(F)F)cc2)ccc1F` [Example 17, (2R)-2-[({3-fluoro-6-[4-(trifluoromethyl)phenyl]pyridin-2-yl}methyl)amino]-3-methylbutan-1-ol], the pIC50 was 6.70.
As to `CC(C)Oc1ccc(F)c(-c2ccc(F)c(CN[C@@H](CO)C(C)C)n2)c1` [Example 23, (2R)-2-[({3-fluoro-6-[2-fluoro-5-(propan-2-yloxy)phenyl]pyridin-2-yl}methyl)amino]-3-methylbutan-1-ol], the pIC50 is 6.15.
In the case of `OC1(CNCc2ccnc(-c3ccc(C(F)(F)F)cc3)n2)CC1` [Example 176, 1-{[({2-[4-(trifluoromethyl)phenyl]pyrimidin-4-yl}methyl)amino]methyl}cyclopropanol] it was below 4.70.
In the case of `CC(C)[C@H](CO)NCc1nc(-c2cccc(C(=O)N3CCSCC3)c2)ccc1F` [Example 62, {3-[5-fluoro-6-({[(2R)-1-hydroxy-3-methylbutan-2-yl]amino}methyl)pyridin-2-yl]phenyl}(thiomorpholin-4-yl)methanone] it was 5.40; in that of `COCC(CO)NCc1ccnc(-c2ccc(S(=O)(=O)C(F)(F)F)cc2)n1` (stereo not drawn) [Example 210, 3-methoxy-2-{[(2-{4-[(trifluoromethyl)sulfonyl]phenyl}pyrimidin-4-yl)methyl]amino}propan-1-ol], 4.73; in that of `COCC(CO)NCc1ccnc(-c2ccc(C(F)(F)F)nc2)n1` (stereo not drawn) [Example 187, 3-methoxy-2-[({2-[6-(trifluoromethyl)pyridin-3-yl]pyrimidin-4-yl}methyl)amino]propan-1-ol], below 4.70.
`Cc1nc(-c2ccccc2)sc1-c1ccc(F)c(CN[C@@H](CO)C(C)C)n1` [Example 287, (2R)-2-({[3-fluoro-6-(4-methyl-2-phenyl-1,3-thiazol-5-yl)pyridin-2-yl]methyl}amino)-3-methylbutan-1-ol]: the pIC50 was 6.14.
As for `CC(C)[C@H](CO)NCc1cccc(-c2ccc(C(F)(F)F)nc2)n1` [Example 69, (2R)-3-methyl-2-({[6′-(trifluoromethyl)-2,3′-bipyridin-6-yl]methyl}amino)butan-1-ol], the pIC50 is 5.43.
As for `CCC[C@H](CO)NCc1nc(-c2ccc(C(F)(F)F)nc2)ccc1F` [Example 87, (2R)-2-({[5-fluoro-6′-(trifluoromethyl)-2,3′-bipyridin-6-yl]methyl}amino)pentan-1-ol], the pIC50 was 5.51.
Take `CC(C)[C@H](CO)NCc1nc(-c2cccc(S(=O)(=O)N(C)C(C)(C)C)c2)ccc1F` [Example 61, N-tert-butyl-3-[5-fluoro-6-({[(2R)-1-hydroxy-3-methylbutan-2-yl]amino}methyl)pyridin-2-yl]-N-methylbenzenesulfonamide]: the pIC50 was 6.72.
As for `CC(C)[C@H](CO)NCc1cccc(C#Cc2ccc(S(F)(F)(F)(F)F)cc2)n1` [Example 263, (2R)-3-methyl-2-{[(6-{[4-(pentafluoro-λ^6-sulfanyl)phenyl]ethynyl}pyridin-2-yl)methyl]amino}butan-1-ol], the negative logarithm of the IC50 (pIC50) is 6.64.
In the case of `CC(C)[C@H](CO)NCc1nc(-c2cccc(N3CCCC3)c2)ccc1F` [Example 49, (2R)-2-[({3-fluoro-6-[3-(pyrrolidin-1-yl)phenyl]pyridin-2-yl}methyl)amino]-3-methylbutan-1-ol], the pIC50 was 6.32.
For `CC(C)[C@H](CO)NCc1nc(N2CCc3c(F)cccc3C2)ccc1F` [Example 97, (2R)-2-({[3-fluoro-6-(5-fluoro-3,4-dihydroisoquinolin-2(1H)-yl)pyridin-2-yl]methyl}amino)-3-methylbutan-1-ol] the value was 6.96; for `CC(C)Oc1ccc(-c2ccc(F)c(CN[C@@H](CO)C(C)C)n2)cn1` [Example 57, (2R)-2-({[5-fluoro-6′-(propan-2-yloxy)-2,3′-bipyridin-6-yl]methyl}amino)-3-methylbutan-1-ol], 6.30; for `CC(C)[C@H](CO)NCc1nc(-c2cccc(C(=O)N(C)Cc3ccccc3)c2)ccc1F` [Example 58, N-benzyl-3-[5-fluoro-6-({[(2R)-1-hydroxy-3-methylbutan-2-yl]amino}methyl)pyridin-2-yl]-N-methylbenzamide], 5.83.
With `OCC1(CNCc2ccnc(-c3ccc(C(F)(F)F)cc3)n2)COC1` [Example 160], the pIC50 was below 4.70.
As to `CC(C)(O)[C@H](CO)NCc1ccnc(-c2ccc(S(=O)(=O)C(F)(F)F)cc2)n1` [Example 211, (2S)-3-methyl-2-{[(2-{4-[(trifluoromethyl)sulfonyl]phenyl}pyrimidin-4-yl)methyl]amino}butane-1,3-diol], the pIC50 is below 4.70.
Consider `CC(C)[C@H](CO)NCc1nc(-c2ccc(F)cc2)ccc1F` [Example 27, (2R)-2-({[3-fluoro-6-(4-fluorophenyl)pyridin-2-yl]methyl}amino)-3-methylbutan-1-ol], for which the pIC50 was 6.49.
`CC(C)[C@H](CO)NCc1cccc(-c2cccc([Si](C)(C)C)c2)n1` [Example 226, (2R)-3-methyl-2-[({6-[3-(trimethylsilyl)phenyl]pyridin-2-yl}methyl)amino]butan-1-ol]: the pIC50 was 6.22.
For `CC(C)[C@H](CO)NCc1nc(-c2cc(C(F)(F)F)cc(C(F)(F)F)c2)ccc1F` [Example 22, (2R)-2-[({6-[3,5-bis(trifluoromethyl)phenyl]-3-fluoropyridin-2-yl}methyl)amino]-3-methylbutan-1-ol], the pIC50 is 5.89.
In the case of `OC[C@H](NCc1ccnc(-c2ccc(C(F)(F)F)cc2)n1)C1CCCCC1` [Example 146, (2R)-2-cyclohexyl-2-[({2-[4-(trifluoromethyl)phenyl]pyrimidin-4-yl}methyl)amino]ethanol], the pIC50 is 5.06.
For the compound `CC(C)[C@H](CO)NCc1nc(-c2ccc(OC(F)(F)F)cc2)ccc1F` [Example 19, (2R)-2-[({3-fluoro-6-[4-(trifluoromethoxy)phenyl]pyridin-2-yl}methyl)amino]-3-methylbutan-1-ol], the pIC50 is 6.64.
For `OC[C@@H]1[C@@H]2CC[C@@H](C2)[C@@H]1NCc1cccc(-c2ccc(C(F)(F)F)cc2)n1` [Example 9, {(1R,2R,3S,4S)-3-[({6-[4-(trifluoromethyl)phenyl]pyridin-2-yl}methyl)amino]bicyclo[2.2.1]heptan-2-yl}methanol] the value was 5.44.
For `CC(C)[C@H](CO)NCc1cccc(-c2ccc(C(F)(F)F)cc2C(F)(F)F)n1` [Example 270, (2R)-2-[({6-[2,4-bis(trifluoromethyl)phenyl]pyridin-2-yl}methyl)amino]-3-methylbutan-1-ol] the value was 6.26.
As for `CC(C)[C@H](CO)NCc1nc(-c2ccc(Cl)nc2)ccc1F` [Example 38, (2R)-2-{[(6′-chloro-5-fluoro-2,3′-bipyridin-6-yl)methyl]amino}-3-methylbutan-1-ol], the pIC50 was 5.55.
For `CC(O)C(C)NCc1nc(-c2ccc(C(F)(F)F)nc2)ccc1F` (stereo not drawn) [Example 90, 3-({[5-fluoro-6′-(trifluoromethyl)-2,3′-bipyridin-6-yl]methyl}amino)butan-2-ol] the value was 5.59; for `CC(C)[C@H](CO)NCc1nc(-c2ccc(Cl)cc2)ccc1F` [Example 42, (2R)-2-({[6-(4-chlorophenyl)-3-fluoropyridin-2-yl]methyl}amino)-3-methylbutan-1-ol], 6.41; for `CC[C@H](C)[C@@H](CO)NCc1cccc(-c2ccc(C(F)(F)F)cc2)n1` [Example 2, (2S,3S)-3-methyl-2-[({6-[4-(trifluoromethyl)phenyl]pyridin-2-yl}methyl)amino]pentan-1-ol], 5.42.
For `Cc1cc(-c2ccc(F)c(CN[C@@H](CO)C(C)C)n2)ccc1F` [Example 280, (2R)-2-({[3-fluoro-6-(4-fluoro-3-methylphenyl)pyridin-2-yl]methyl}amino)-3-methylbutan-1-ol] the value was 6.60.
In the case of `CC(C)[C@H](CO)NCc1nc(-c2cccc(C(=O)N(C(C)C)C(C)C)c2)ccc1F` [Example 56, 3-[5-fluoro-6-({[(2R)-1-hydroxy-3-methylbutan-2-yl]amino}methyl)pyridin-2-yl]-N,N-diisopropylbenzamide] it was 5.75; in that of `OC[C@H](NCc1ccnc(-c2ccc(C(F)(F)F)cc2)n1)c1ccccc1` [Example 139, (2R)-2-phenyl-2-[({2-[4-(trifluoromethyl)phenyl]pyrimidin-4-yl}methyl)amino]ethanol], 5.09; in that of `COCC(CO)NCc1ccnc(-c2ccc(C(F)(F)F)cc2)n1` (stereo not drawn) [Example 144, 3-methoxy-2-[({2-[4-(trifluoromethyl)phenyl]pyrimidin-4-yl}methyl)amino]propan-1-ol], 4.81.
